Read-outs that look alike come from different tables or passages of the source.
What was measured:
EGFR (ErbB1) = molecular target: T1, EGFR (ErbB1) (Homo sapiens, UniProt P00533); assay: In vitro kinase assay (Z'-LYTE, Invitrogen); assay type: biochemical; conditions: compound at 100 nM, ATP Km apparent, read-out: % of inhibition of the kinase compared to the control
T1 construct: purchased Invitrogen
Procedure, shortened: (§1)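 Compounds were tested at 100 nM in 1% DMSO, in 50 mM HEPES pH 7.5 buffer with MgCl2, EGTA and BRIJ-35, and ATP at its predetermined apparent Km. Inhibition was derived from the coupled-enzyme FRET emission ratio, which reflects protease-resistant phosphorylated peptide.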

KDR (VEGFR2) = molecular target: T2, KDR (VEGFR2) (Homo sapiens, UniProt P35968); assay: In vitro kinase assay (Z'-LYTE, Invitrogen); assay type: biochemical; conditions: compound at 100 nM, ATP Km apparent, read-out: % of inhibition of the kinase compared to the control
T2 construct: purchased Invitrogen
Procedure, shortened: as §1

SRC = molecular target: T3, SRC (Homo sapiens, UniProt P12931); assay: In vitro kinase assay (Z'-LYTE, Invitrogen); assay type: biochemical; conditions: compound at 100 nM, ATP Km apparent, read-out: % of inhibition of the kinase compared to the control
T3 construct: purchased Invitrogen
T3 sequence (P12931 whole entry): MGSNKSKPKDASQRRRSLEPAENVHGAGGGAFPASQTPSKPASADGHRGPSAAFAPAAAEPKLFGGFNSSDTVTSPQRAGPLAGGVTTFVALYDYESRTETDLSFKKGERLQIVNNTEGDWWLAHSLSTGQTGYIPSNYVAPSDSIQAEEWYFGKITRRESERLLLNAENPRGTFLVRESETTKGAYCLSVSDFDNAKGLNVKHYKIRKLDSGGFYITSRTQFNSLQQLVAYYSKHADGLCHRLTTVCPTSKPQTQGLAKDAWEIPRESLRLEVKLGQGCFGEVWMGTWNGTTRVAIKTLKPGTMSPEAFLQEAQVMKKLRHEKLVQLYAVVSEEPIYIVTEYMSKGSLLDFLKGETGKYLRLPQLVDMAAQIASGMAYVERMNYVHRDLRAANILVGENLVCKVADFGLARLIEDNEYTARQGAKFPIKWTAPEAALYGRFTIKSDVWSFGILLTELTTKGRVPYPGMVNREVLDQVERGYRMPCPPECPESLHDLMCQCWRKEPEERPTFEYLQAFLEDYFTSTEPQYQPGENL
Procedure, shortened: as §1

BRAF = molecular target: T4, BRAF (Homo sapiens, UniProt P15056); assay: In vitro kinase assay (Z'-LYTE, Invitrogen); assay type: biochemical; conditions: compound at 100 nM, ATP Km apparent, read-out: % of inhibition of the kinase compared to the control
T4 construct: purchased Invitrogen
Procedure, shortened: as §1

FGFR2 = molecular target: T5, FGFR2 (Homo sapiens, UniProt P21802); assay: In vitro kinase assay (Z'-LYTE, Invitrogen); assay type: biochemical; conditions: compound at 100 nM, ATP Km apparent, read-out: % of inhibition of the kinase compared to the control
T5 construct: purchased Invitrogen
T5 sequence (P21802 22-821): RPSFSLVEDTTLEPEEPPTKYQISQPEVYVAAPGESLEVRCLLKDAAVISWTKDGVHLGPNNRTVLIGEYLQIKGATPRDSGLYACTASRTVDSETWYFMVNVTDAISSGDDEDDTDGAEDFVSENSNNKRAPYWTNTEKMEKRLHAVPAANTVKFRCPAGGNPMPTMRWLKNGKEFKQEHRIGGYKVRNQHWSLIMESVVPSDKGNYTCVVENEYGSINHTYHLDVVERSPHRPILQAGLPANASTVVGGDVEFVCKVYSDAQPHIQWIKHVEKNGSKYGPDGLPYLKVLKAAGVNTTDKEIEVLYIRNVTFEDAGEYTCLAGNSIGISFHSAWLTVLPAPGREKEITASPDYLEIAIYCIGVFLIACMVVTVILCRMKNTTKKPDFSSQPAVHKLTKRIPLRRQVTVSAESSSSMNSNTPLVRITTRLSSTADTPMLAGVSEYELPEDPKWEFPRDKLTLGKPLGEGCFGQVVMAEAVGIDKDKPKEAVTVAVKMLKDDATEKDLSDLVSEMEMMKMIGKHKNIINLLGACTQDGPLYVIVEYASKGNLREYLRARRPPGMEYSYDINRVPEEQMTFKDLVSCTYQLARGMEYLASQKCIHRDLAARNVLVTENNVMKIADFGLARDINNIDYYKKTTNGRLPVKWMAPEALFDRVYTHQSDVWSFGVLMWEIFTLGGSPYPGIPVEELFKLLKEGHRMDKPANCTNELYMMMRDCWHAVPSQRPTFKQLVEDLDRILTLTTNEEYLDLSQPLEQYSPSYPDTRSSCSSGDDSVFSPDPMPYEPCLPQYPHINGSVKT
Procedure, shortened: as §1

PDGFRA (PDGFR alpha) = molecular target: T6, PDGFRA (PDGFR alpha) (Homo sapiens, UniProt P16234); assay: In vitro kinase assay (Z'-LYTE, Invitrogen); assay type: biochemical; conditions: compound at 100 nM, ATP Km apparent, read-out: % of inhibition of the kinase compared to the control
T6 construct: purchased Invitrogen
T6 sequence (P16234 24-1089): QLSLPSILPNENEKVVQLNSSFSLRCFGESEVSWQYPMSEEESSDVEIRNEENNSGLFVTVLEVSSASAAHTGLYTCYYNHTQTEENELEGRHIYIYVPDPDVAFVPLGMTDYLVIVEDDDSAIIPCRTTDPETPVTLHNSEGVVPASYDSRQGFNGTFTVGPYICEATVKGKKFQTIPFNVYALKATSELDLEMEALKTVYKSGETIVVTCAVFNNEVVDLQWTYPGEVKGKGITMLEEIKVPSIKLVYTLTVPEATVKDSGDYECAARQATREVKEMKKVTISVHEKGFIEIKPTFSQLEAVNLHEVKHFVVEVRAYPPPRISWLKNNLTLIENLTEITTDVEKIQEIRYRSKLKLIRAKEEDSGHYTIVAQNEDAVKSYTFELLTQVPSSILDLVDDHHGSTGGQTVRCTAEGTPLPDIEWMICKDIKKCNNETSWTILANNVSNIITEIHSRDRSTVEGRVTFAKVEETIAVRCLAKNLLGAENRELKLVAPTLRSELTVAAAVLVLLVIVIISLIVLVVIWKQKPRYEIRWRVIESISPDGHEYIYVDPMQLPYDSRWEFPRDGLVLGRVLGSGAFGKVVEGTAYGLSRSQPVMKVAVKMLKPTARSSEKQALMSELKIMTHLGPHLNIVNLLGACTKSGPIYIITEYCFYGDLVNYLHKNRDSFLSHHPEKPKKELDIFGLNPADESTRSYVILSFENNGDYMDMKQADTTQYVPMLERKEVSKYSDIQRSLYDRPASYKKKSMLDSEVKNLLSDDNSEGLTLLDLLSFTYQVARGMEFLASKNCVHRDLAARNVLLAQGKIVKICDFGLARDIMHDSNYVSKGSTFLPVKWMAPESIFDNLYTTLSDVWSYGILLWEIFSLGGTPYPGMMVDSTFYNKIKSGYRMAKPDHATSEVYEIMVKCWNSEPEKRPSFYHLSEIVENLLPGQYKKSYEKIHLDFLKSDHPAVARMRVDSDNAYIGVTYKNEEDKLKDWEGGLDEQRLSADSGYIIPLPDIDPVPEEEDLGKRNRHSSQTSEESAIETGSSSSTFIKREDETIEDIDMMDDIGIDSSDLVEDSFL
Procedure, shortened: as §1

HepG2 cell line = assay: In vitro cell proliferation assay (MTT); assay type: cell-based; conditions: Homo sapiens, HepG2, 72 hr, read-out: EC50, anti-proliferative activity
Procedure, shortened: (§2)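 Duplicate 72 hr treatments spanning 10 nM–3 μM compound preceded MTT measurement of growth. Sigmoidal fitting yielded EC50, with normalization against DMSO controls set at 0% and 1% SDS controls set at 100%.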

HUVEC cells = assay: In vitro cell proliferation assay (MTT); assay type: cell-based; conditions: Homo sapiens, 72 hr, read-out: EC50, anti-proliferative activity
Procedure, shortened: as §2

HuH6 Clone 5 cell line = assay: In vitro cell proliferation assay (MTT); assay type: cell-based; conditions: HUH-6-clone5, HuH6 Clone 5, 72 hr, read-out: EC50, anti-proliferative activity
Procedure, shortened: as §2

HuH7 cell line = assay: In vitro cell proliferation assay (MTT); assay type: cell-based; conditions: Homo sapiens, Huh-7, HuH7, 72 hr, read-out: EC50, anti-proliferative activity
Procedure, shortened: as §2

HuCCT1 cell line = assay: In vitro cell proliferation assay (MTT); assay type: cell-based; conditions: Homo sapiens, HuCCT-1, HuCCT1, 72 hr, read-out: EC50, anti-proliferative activity
Procedure, shortened: as §2

A549 cell line = assay: In vitro cell proliferation assay (MTT); assay type: cell-based; conditions: Homo sapiens, A549, 72 h, EC50 ≧ 1 μM, read-out: EC50, anti-proliferative activity
Procedure, shortened: as §2

HT29 cell line = assay: In vitro cell proliferation assay (MTT); assay type: cell-based; conditions: Homo sapiens, HT-29, HT29, 72 hr, read-out: EC50, anti-proliferative activity
Procedure, shortened: as §2

EGFR (ErbB1) T790M L858R = molecular target: T7, EGFR (ErbB1) T790M L858R (Homo sapiens, UniProt P00533, L858R/T790M); assay: In vitro kinase assay (Z'-LYTE, Invitrogen); assay type: biochemical; conditions: compound at 100 nM, ATP Km apparent, read-out: % of inhibition of the kinase compared to the control
T7 construct: purchased Invitrogen
T7 sequence (P00533 25-1210 T790M/L858R): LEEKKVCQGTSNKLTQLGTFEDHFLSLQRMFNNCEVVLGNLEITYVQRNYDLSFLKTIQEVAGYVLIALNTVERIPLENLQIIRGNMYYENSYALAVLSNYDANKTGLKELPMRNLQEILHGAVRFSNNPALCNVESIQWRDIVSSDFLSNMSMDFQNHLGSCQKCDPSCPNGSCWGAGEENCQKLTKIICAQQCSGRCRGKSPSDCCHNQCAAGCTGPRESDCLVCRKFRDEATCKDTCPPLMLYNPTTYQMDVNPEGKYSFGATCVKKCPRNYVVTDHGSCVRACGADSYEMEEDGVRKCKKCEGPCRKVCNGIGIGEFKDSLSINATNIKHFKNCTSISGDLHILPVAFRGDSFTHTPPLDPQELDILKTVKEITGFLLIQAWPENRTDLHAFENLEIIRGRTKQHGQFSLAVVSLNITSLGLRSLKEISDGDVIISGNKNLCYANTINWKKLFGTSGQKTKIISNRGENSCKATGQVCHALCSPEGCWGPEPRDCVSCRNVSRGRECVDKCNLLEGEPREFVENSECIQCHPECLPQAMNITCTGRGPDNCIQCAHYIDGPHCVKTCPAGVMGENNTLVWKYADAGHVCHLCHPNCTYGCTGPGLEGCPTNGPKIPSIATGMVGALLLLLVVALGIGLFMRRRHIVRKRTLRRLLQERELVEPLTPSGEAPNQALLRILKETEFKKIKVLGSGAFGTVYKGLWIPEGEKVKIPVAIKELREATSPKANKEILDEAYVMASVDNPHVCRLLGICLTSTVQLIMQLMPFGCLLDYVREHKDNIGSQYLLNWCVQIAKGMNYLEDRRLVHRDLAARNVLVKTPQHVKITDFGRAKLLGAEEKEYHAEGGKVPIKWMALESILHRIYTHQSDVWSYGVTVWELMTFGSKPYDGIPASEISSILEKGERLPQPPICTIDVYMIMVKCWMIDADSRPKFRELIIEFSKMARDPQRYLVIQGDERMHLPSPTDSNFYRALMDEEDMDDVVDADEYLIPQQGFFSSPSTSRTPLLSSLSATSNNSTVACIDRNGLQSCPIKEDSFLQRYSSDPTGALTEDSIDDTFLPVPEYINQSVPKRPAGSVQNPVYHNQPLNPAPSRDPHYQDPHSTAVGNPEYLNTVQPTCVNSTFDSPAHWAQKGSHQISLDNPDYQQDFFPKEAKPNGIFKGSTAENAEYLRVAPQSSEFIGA
Procedure, shortened: as §1

H1975 cell line = assay: In vitro cell proliferation assay (MTT); assay type: cell-based; conditions: Homo sapiens, NCI-H1975, H1975, 72 hr, read-out: EC50, anti-proliferative activity
Procedure, shortened: as §2

MDA-MB-231 cell line = assay: In vitro cell proliferation assay (MTT); assay type: cell-based; conditions: Homo sapiens, MDA-MB-231, 72 hr, EC50 ≧ 1 μM, read-out: EC50, anti-proliferative activity
Procedure, shortened: as §2

T1 sequence (P00533 25-1210): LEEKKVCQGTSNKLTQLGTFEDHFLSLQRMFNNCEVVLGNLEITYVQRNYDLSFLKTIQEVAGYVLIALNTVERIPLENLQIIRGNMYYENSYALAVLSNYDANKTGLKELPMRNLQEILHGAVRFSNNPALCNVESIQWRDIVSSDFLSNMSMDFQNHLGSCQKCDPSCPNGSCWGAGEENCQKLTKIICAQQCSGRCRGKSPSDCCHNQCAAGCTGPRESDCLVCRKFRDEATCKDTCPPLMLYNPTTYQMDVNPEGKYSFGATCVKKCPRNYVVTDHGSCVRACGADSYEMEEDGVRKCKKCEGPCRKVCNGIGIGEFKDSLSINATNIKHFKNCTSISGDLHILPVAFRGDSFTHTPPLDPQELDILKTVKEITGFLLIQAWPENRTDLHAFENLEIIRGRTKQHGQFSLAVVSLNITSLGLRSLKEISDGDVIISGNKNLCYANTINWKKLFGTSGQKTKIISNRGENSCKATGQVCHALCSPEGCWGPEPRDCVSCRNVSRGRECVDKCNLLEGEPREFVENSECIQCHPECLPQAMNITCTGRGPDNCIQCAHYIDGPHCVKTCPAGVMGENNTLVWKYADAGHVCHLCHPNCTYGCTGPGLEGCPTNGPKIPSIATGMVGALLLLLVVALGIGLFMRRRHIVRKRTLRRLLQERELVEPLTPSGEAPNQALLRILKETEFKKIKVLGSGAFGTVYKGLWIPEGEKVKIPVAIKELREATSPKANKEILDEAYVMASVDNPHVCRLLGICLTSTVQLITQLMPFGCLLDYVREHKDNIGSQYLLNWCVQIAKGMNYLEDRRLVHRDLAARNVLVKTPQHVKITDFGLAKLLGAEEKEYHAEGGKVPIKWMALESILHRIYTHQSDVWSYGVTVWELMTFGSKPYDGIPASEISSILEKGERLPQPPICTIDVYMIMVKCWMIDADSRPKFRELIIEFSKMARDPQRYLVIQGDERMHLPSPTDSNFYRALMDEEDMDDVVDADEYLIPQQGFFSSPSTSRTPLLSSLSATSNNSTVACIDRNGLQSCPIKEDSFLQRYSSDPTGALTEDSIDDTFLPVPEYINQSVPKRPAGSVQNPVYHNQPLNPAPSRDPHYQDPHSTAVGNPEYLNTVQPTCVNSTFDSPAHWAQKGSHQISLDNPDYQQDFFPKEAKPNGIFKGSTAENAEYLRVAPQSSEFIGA

inhibition at 0.1 µM (EGFR (ErbB1)) [%]	inhibition at 0.1 µM (KDR (VEGFR2)) [%]	inhibition at 0.1 µM (SRC) [%]	inhibition at 0.1 µM (BRAF) [%]	inhibition at 0.1 µM (FGFR2) [%]	inhibition at 0.1 µM (PDGFRA (PDGFR alpha)) [%]	EC50 (HepG2 cell line; EC50 ≧ 1 μM) [nM]	EC50 (HuH6 Clone 5 cell line; EC50 ≧ 1 μM) [nM]	EC50 (HuH7 cell line; 100 nM < EC50 < 1 μM) [nM]	EC50 (A549 cell line) [nM]	EC50 (HT29 cell line; EC50 ≧ 1 μM) [nM]	inhibition at 0.1 µM (EGFR (ErbB1) T790M L858R) [%]	EC50 (H1975 cell line; EC50 ≧ 1 μM) [nM]	Structure (SMILES)	EC50 (HUVEC cells; 100 nM < EC50 < 1 μM) [nM]	EC50 (HUVEC cells; EC50 ≧ 1 μM) [nM]	EC50 (HuCCT1 cell line; EC50 ≧ 1 μM) [nM]	further results
≥ 50	≥ 50	≥ 50	≥ 50	< 50	≥ 50	≥ 1000	≥ 1000	100 to 1000	–	–	–	–	CC(=O)c1cc2cc(CCc3cc(NC(=O)c4ccc(CN5CCN(C)CC5)cc4)ccc3C)cnc2[nH]1 [OR0799, N-{3-[2-(2-Acetyl-1H-pyrrolo[2,3-b]pyridin-5-yl)-ethyl]-4-methyl-phenyl}-4-(4-methyl-piperazin-1-ylmethyl)-benzamide]	100 to 1000	–	–	EC50 (HuCCT1 cell line; 100 nM < EC50 < 1 μM): 100 to 1000 nM
–	–	–	–	–	–	–	–	–	≥ 1000	≥ 1000	–	–	C#Cc1cccc(Nc2ncnc3cc(OCCOC)c(OCCOC)cc23)c1 [Erlotinib, reference compound]	–	≥ 1000	–	–
< 50	≥ 50	≥ 50	≥ 50	< 50	≥ 50	≥ 1000	≥ 1000	–	–	–	–	–	CC(=O)c1cc2cc(CCc3cc(NC(=O)c4cncc(C(F)(F)F)c4)ccc3C)cnc2[nH]1 [OR0800, N-{3-[2-(2-Acetyl-1H-pyrrolo[2,3-b]pyridin-5-yl)-ethyl]-4-methyl-phenyl}-5-trifluoromethyl-nicotinamide]	100 to 1000	–	≥ 1000	EC50 (HuH7 cell line; EC50 ≧ 1 μM): ≥ 1000 nM
≥ 50	≥ 50	≥ 50	< 50	≥ 50	≥ 50	≥ 1000	–	–	≥ 1000	≥ 1000	< 50	≥ 1000	COC(=O)c1cc2cc(CNc3cc(NC(=O)c4ccc(CN5CCN(C)CC5)c(C(F)(F)F)c4)ccc3C)cnc2[nH]1 [OR0747, 5-({2-Methyl-5-[4-(4-methyl-piperazin-1-ylmethyl)-3-trifluoromethyl-benzoylamino]-phenylamino}-methyl)-1H-pyrrolo[2,3-b]pyridine-2-carboxylic acid methyl ester]	100 to 1000	–	≥ 1000	–
≥ 50	≥ 50	≥ 50	< 50	≥ 50	≥ 50	–	–	100 to 1000	≥ 1000	≥ 1000	< 50	≥ 1000	COC(=O)c1cc2cc(C=Cc3cc(NC(=O)c4ccc(CN5CCN(C)CC5)c(C(F)(F)F)c4)ccc3C)cnc2[nH]1 [OR0777, 5-(-2-{2-Methyl-5-[4-(4-methyl-piperazin-1-ylmethyl)-3-trifluoromethyl-benzoylamino]-phenyl}-vinyl)-1H-pyrrolo[2,3-b]pyridine-2-carboxylic acid methyl ester]	100 to 1000	–	–	EC50 (HepG2 cell line; 100 nM < EC50 < 1 μM): 100 to 1000 nM; EC50 (HuH6 Clone 5 cell line; 100 nM < EC50 < 1 μM): 100 to 1000 nM; EC50 (HuCCT1 cell line; 100 nM < EC50 < 1 μM): 100 to 1000 nM
≥ 50	≥ 50	≥ 50	< 50	≥ 50	≥ 50	≥ 1000	–	–	≥ 1000	≥ 1000	< 50	–	COC(=O)c1cc2cc(COc3cc(NC(=O)c4ccc(CN5CCC(N(C)C)C5)c(C(F)(F)F)c4)ccc3C)cnc2[nH]1 (stereo not shown) [OR0750, 5-{5-[4-(3-Dimethylamino-pyrrolidin-1-ylmethyl)-3-trifluoromethyl-benzoylamino]-2-methyl-phenoxymethyl}-1H-pyrrolo[2,3-b]pyridine-2-carboxylic acid methyl ester]	100 to 1000	–	≥ 1000	EC50 (H1975 cell line; 100 nM < EC50 < 1 μM): 100 to 1000 nM
≥ 50	≥ 50	≥ 50	≥ 50	≥ 50	≥ 50	≥ 1000	≥ 1000	100 to 1000	–	–	≥ 50	–	COC(=O)c1cc2cc(CCc3cc(NC(=O)c4ccc(CN5CCC(N(C)C)C5)c(C(F)(F)F)c4)ccc3C)cnc2[nH]1 (stereo not shown) [OR0775, 5-(2-{5-[4-(3-Dimethylamino-pyrrolidin-1-ylmethyl)-3-trifluoromethyl-benzoylamino]-2-methyl-phenyl}-ethyl)-1H-pyrrolo[2,3-b]pyridine-2-carboxylic acid methyl ester]	100 to 1000	–	≥ 1000	–
≥ 50	≥ 50	≥ 50	< 50	< 50	≥ 50	≥ 1000	≥ 1000	–	–	–	–	–	COC(=O)c1cc2cc(C=Cc3cc(NC(=O)c4ccc(CN5CCC(N(C)C)C5)c(C(F)(F)F)c4)ccc3C)cnc2[nH]1 (stereo not shown) [OR0778, 5-(2-{5-[4-(3-Dimethylamino-pyrrolidin-1-ylmethyl)-3-trifluoromethyl-benzoylamino]-2-methyl-phenyl}-vinyl)-1H-pyrrolo[2,3-b]pyridine-2-carboxylic acid methyl ester]	–	≥ 1000	≥ 1000	EC50 (MDA-MB-231 cell line): ≥ 1000 nM; EC50 (HuH7 cell line; EC50 ≧ 1 μM): ≥ 1000 nM
≥ 50	≥ 50	≥ 50	< 50	≥ 50	≥ 50	≥ 1000	≥ 1000	100 to 1000	≥ 1000	–	< 50	≥ 1000	COC(=O)c1cc2cc(COc3cc(NC(=O)c4ccc(CN5CCN(C)CC5)c(C(F)(F)F)c4)ccc3C)cnc2[nH]1 [OR0749, 5-{2-Methyl-5-[4-(4-methyl-piperazin-1-ylmethyl)-3-trifluoromethyl-benzoylamino]-phenoxymethyl}-1H-pyrrolo[2,3-b]pyridine-2-carboxylic acid methyl ester]	100 to 1000	–	≥ 1000	EC50 (HT29 cell line; 100 nM < EC50 < 1 μM): 100 to 1000 nM
< 50	< 50	< 50	< 50	< 50	< 50	≥ 1000	–	–	≥ 1000	≥ 1000	< 50	≥ 1000	COC(=O)c1cc2cc(CNc3cc(NC(=O)c4ccc(C)cc4)ccc3C)cnc2[nH]1 [OR0738, 5-{[2-Methyl-5-(4-methyl-benzoylamino)-phenylamino]-methyl}-1H-pyrrolo[2,3-b]pyridine-2-carboxylic acid methyl ester]	–	≥ 1000	≥ 1000	–

Reference: patent publication US9550772B2, “Azaindole derivatives as multi kinase inhibitors” (ORIBASE PHARMA, priority 2012, dated 2017)
